Measurements as given in BigSolDB 2.1.

Q: With `CCCCc1oc2ccc(NS(C)(=O)=O)cc2c1C(=O)c1ccc(OCCCN(CCCC)CCCC)cc1.Cl` as the compound, how does the solubility (mole fraction) (in ethanol, 298.15 K) read?
A: 0.00418

Q: And the solubility (mole fraction) (in ethanol, 303.15 K)?
A: 0.00461

Q: And the solubility (mole fraction) (in ethanol, 308.15 K)?
A: 0.00535

Q: And the solubility (mole fraction) (in ethanol, 313.15 K)?
A: 0.00818

Q: What about the solubility (mole fraction) (in ethanol, 318.15 K) of the same compound?
A: 0.0159

Q: What about the solubility (mole fraction) (in ethanol, 323.15 K) of the same compound?
A: 0.0362

Q: What about the solubility (mole fraction) (in isopropanol, 298.15 K) of the same compound?
A: 0.000681

Q: And the solubility (mole fraction) (in isopropanol, 303.15 K)?
A: 0.000838

Q: What about the solubility (mole fraction) (in isopropanol, 308.15 K) of the same compound?
A: 0.00106

Q: What about the solubility (mole fraction) (in isopropanol, 313.15 K) of the same compound?
A: 0.00119

Q: And the solubility (mole fraction) (in isopropanol, 318.15 K)?
A: 0.00185

Q: What about the solubility (mole fraction) (in isopropanol, 323.15 K) of the same compound?
A: 0.00293

Q: What about the solubility (mole fraction) (in methanol, 298.15 K) of the same compound?
A: 0.0556

Q: And the solubility (mole fraction) (in methanol, 303.15 K)?
A: 0.0592

Q: And the solubility (mole fraction) (in methanol, 308.15 K)?
A: 0.061

Q: And the solubility (mole fraction) (in methanol, 313.15 K)?
A: 0.077

Q: And the solubility (mole fraction) (in methanol, 318.15 K)?
A: 0.0919

Q: And the solubility (mole fraction) (in methanol, 323.15 K)?
A: 0.119

Q: And the solubility (mole fraction) (in n-butanol, 298.15 K)?
A: 0.00177

Q: What about the solubility (mole fraction) (in n-butanol, 303.15 K) of the same compound?
A: 0.00209

Q: What about the solubility (mole fraction) (in n-butanol, 308.15 K) of the same compound?
A: 0.00261

Q: And the solubility (mole fraction) (in n-butanol, 313.15 K)?
A: 0.00352

Q: And the solubility (mole fraction) (in n-butanol, 318.15 K)?
A: 0.00509

Q: And the solubility (mole fraction) (in n-butanol, 323.15 K)?
A: 0.00805

Q: And the solubility (mole fraction) (in n-propanol, 298.15 K)?
A: 0.00275

Q: What about the solubility (mole fraction) (in n-propanol, 303.15 K) of the same compound?
A: 0.00353

Q: What about the solubility (mole fraction) (in n-propanol, 308.15 K) of the same compound?
A: 0.00433

Q: And the solubility (mole fraction) (in n-propanol, 313.15 K)?
A: 0.00563

Q: And the solubility (mole fraction) (in n-propanol, 318.15 K)?
A: 0.00892

Q: What about the solubility (mole fraction) (in n-propanol, 323.15 K) of the same compound?
A: 0.0159

Q: And the solubility (mole fraction) (in water, 298.15 K)?
A: 2.71e-05

Q: What about the solubility (mole fraction) (in water, 303.15 K) of the same compound?
A: 2.73e-05

Q: What about the solubility (mole fraction) (in water, 308.15 K) of the same compound?
A: 3.09e-05

Q: And the solubility (mole fraction) (in water, 313.15 K)?
A: 3.57e-05

Q: What about the solubility (mole fraction) (in water, 318.15 K) of the same compound?
A: 4.49e-05

Q: And the solubility (mole fraction) (in water, 323.15 K)?
A: 6.11e-05
